We go through five compounds from patent US7049331B2, “1,2,4-thiadiazole derivatives as melanocortin receptor modulators” (Ortho-McNeil Pharmaceutical, Inc., priority 2001, dated 2006).

Assay [1] concerns the target T1, melanocortin MC-4 receptor (Homo sapiens, UniProt P32245).
T1 construct: purchased Receptor Biology Inc
The assay is described as follows: Melanocortin MC-4 Receptor Binding Assay (SPA). In outline:
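Membranes bound to WGA SPA beads were incubated 16 h at 25° C with 40 pM ¹²⁵I-NDP-MSH and test compound (1 mM stock in 30% DMSO-HEPES pH 7.4). Nonspecific binding set with 1 μM NDP-MSH or α-MSH; percent inhibition from bound cpm.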

Assay [2] deals with human sebocytes. Nature of the assay: Nile red evaluation of lipid accumulation in sebocytes. It counts as cell-based. To be noted: for inhibition at 0.4 µM: read-out: % Inh 0.4 μM (lipid accumulation, Nile red); for inhibition at 0.8 µM: read-out: % Inh 0.8 μM (lipid accumulation, Nile red). As for the experimental part: The cells were incubated at 37° C. for 24 hours prior to their use as a feeder layer for sebocytes. Human sebocytes were isolated from Dermatome shavings of postoperative pieces of human skin at 0.4-0.8 mm depths (this part of the skin was previously shown to be enriched in sebaceous glands). […] This medium was changed every 3 days (Phase III). Hormones, mixture of hormones i.e. bovine pituitary extract or compounds to be tested were added to the culture at the beginning of phase III. […] The evaluation of lipid accumulation completed using the Nile red method. This method relies on visualization of neutral lipids by Nile red and quantitation by reading of fluorescence at 535 nm excitation, 580 nm emission using a plate reader. The lipid synthesis was evaluated by radioactive labeling using ^14C acetate and quantified by Bio Rad Phosphoimager (Molecular Imager, FX) using 4.1 Software. […] Quantitation of accumulation/inhibition of neutral lipids in sebocytes was accomplished by Nile red binding assay. Briefly, following exposure of sebocytes to test compounds, the cells were allowed to interact with 1 μM Nile red in Hanks buffered saline solution containing DMSO and Pluronic F127. After 4 hours of incubation, washing and incubation overnight, the fluorescence was read at 535 excitation and 580 emission using a fluorescence plate reader. […] Following the procedure described above, select compounds of the present invention were tested for visual and Nile red evaluation of lipid accumulation, with results as listed in Table 9.

For assay [3], the system named is human sebocytes. Nature of the assay: Visual observation of lipid granule formation in sebocytes. It counts as cell-based. The protocol: Semiconfluent cultures of 3T3 mouse fibroblasts (Swiss Albino mouse, ATCC CCL-92) were treated with mitomycin C (4 μg/ml) for 3 hours, trypsinized and seeded at a density of 2.5×10^5/9.5 cm^2 tissue culture plate in Dulbeccos Minimal Essential Medium (DMEM) containing 10% Colorado Calf Serum, PNC (100U/ml), STM (100 μg/ml), L glutamine (0.3 mg/ml), sodium pyruvate (1 mM) and nonessential amino acids (100 μM). The cells were incubated at 37° C. for 24 hours prior to their use as a feeder layer for sebocytes.
Human sebocytes were isolated from Dermatome shavings of postoperative pieces of human skin at 0.4–0.8 mm depths (this part of the skin was previously shown to be enriched in sebaceous glands). Shavings so obtained were treated with 1% Dispase in Iscoves medium containing 10% serum for 20 min at 37° C. The tissue was then placed in 0.3% trypsin/1% EDTA in Phosphate Buffered Saline (PBS) for 10 minutes at 37° C. Following this incubation the cells were gently scraped from the tissue in Growth medium (GM) containing DMEM/F12 media mixture (3:1), supplemented with 8% heat inactivated FBS, 2% heat inactivated human serum (HS), 1 mM sodium pyruvate, epidermal growth factor (10 ng/ml), insulin (10 μg/ml), hydrocortisone (0.4 μg/ml) and +/−cholera toxin (100 μg/ml), L-glutamine and antibiotics. Cells so obtained were filtered through nylon mesh ([…]), centrifuged at 750 RPM, re-suspended in GM and counted.
Resultant cells from the above isolation procedure were plated on the 3T3 feeder layers at 2×10^5/9.5 cm^2 in growth medium and maintained at 37° C. and 5% CO2 for 3 days (Phase I). Following the initial growth period they were transferred to a transition medium (TM) that consisted of DMEM/F12 media supplemented with 1 mM sodium pyruvate, insulin ([…]), transferrin ([…]) and selenium (5.5 μg/ml) (ITS), 2% heat inactivated FBS and 2% heat inactivated human serum as well as +/−cholera toxin (ch.t.) (100 μg/ml), L-glutamine and antibiotics (Phase II). Three days later the cells were changed to differentiation medium (DM), DMEM/F12 supplemented with ITS, 3,3′,5-triido-L-thyronine sodium (3 nM), 1%(v/v) trace element mix and the choice of differentiation agent i.e. bovine pituitary extract (10 μg/ml). This medium was changed every 3 days (Phase III).
Hormones, mixture of hormones i.e. bovine pituitary extract or compounds to be tested were added to the culture at the beginning of phase III. Two criteria were used to evaluate the effect of these materials on sebaceous cultures: 1) visual observations and 2) evaluation of sebaceous lipid accumulation and synthesis. The evaluation of lipid accumulation completed using the Nile red method. This method relies on visualization of neutral lipids by Nile red and quantitation by reading of fluorescence at 535 nm excitation, 580 nm emission using a plate reader. The lipid synthesis was evaluated by radioactive labeling using ^14C acetate and quantified by Bio Rad Phosphoimager (Molecular Imager, FX) using 4.1 Software.
Quantitation of accumulation/inhibition of neutral lipids in sebocytes was accomplished by Nile red binding assay. Briefly, following exposure of sebocytes to test compounds, the cells were allowed to interact with 1 μM Nile red in Hanks buffered saline solution containing DMSO and Pluronic F127. After 4 hours of incubation, washing and incubation overnight, the fluorescence was read at 535 excitation and 580 emission using a fluorescence plate reader.
Following the procedure described above, select compounds of the present invention were tested for visual and Nile red evaluation of lipid accumulation, with results as listed in Table 9.
Following the procedure described above, select compounds of the present invention were tested for their inhibitory effect on differentiation of human sebocytes. […]

For a further assay, the target named is MC5-R (Homo sapiens, UniProt P33032). Nature of the assay: MC5-R binding.
Sequence of MC5-R (P33032 whole entry): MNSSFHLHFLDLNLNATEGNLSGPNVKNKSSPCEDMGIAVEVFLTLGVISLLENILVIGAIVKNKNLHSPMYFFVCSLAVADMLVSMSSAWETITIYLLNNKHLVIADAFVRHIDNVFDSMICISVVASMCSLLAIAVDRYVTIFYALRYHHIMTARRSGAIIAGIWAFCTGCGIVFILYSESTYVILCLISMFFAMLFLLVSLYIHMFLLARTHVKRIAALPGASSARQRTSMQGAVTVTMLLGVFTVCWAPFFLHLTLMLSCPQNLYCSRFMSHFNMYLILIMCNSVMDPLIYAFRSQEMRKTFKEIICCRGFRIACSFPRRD
Assay [4] relates to Male Long-Evans rats, facial nerve compression. The assay is described as follows: In vivo Facial Nerve Compression Model. Set-up: species or system rat. The note with it: test compounds p.o. 20 mg/kg bid, αMSH s.c. 70 ug/each 48 hr. An excerpt: The ability of test compound to provide neuro-protective or neuro-regenerative effects was investigated in a facial nerve compression model. Facial nerve motor axons arise exclusively from neurons within the pons in a well-defined nucleus. Facial nerve compression results in retrograde reactions proximal to the lesion site and Wallerian degeneration at its distal part, which causes diminished whisker movement on the lesioned side.
Male Long-Evans rats (150–180 g) were anesthetized with 3–5% isoflorane for induction and 2% for maintenance during the surgical procedures. The right facial nerve was exposed and compressed with forceps for 30 sec at its exit from the stylomastoid foramen. The left facial nerve was sham-operated and served as an internal control. […] The following morphological abnormalities associated with the functional deficit were observed:
After recovery from anesthesia, the rats were randomly divided into groups for dosing with vehicle, αMSH or test compound, with 6 animals per group. αMSH (s.c., 70 ug/each 48 hr) was used as a positive control. Test compounds were dosed p.o. at 20 mg/kg bid for 14 days. Restoration of whisker movement was monitored daily after the operation using two criteria:
(1) frequency of whisker movement on the lesioned side relative to the opposite side (sham-operated) which served as the baseline control
(2) semi-quantitative measurements (0 to 4+) on strength of the whisker muscles, characterized based on observation of the percentage of moved whiskers, muscle tone of whisker muscles, and the position of the nose. For all observations, the experimental design was blind to the behavioral observer.
The recovery rate of the whisker movement was expressed as percentage of its own internal control (sham-operated), as listed in Table 8.

The subject of another assay is rabbit adipocytes. To be noted: read-out: EC50 lipolytic activity; cited from earlier work.
The test system of a further assay is rat adipocytes. To be noted: read-out: EC50 lipolytic activity; cited from earlier work.
Assay [5] concerns isolated human and non-human primate adipocytes. The note with it: concentrations as high as 1 μM; cited from earlier work.

T1 sequence (P32245 whole entry): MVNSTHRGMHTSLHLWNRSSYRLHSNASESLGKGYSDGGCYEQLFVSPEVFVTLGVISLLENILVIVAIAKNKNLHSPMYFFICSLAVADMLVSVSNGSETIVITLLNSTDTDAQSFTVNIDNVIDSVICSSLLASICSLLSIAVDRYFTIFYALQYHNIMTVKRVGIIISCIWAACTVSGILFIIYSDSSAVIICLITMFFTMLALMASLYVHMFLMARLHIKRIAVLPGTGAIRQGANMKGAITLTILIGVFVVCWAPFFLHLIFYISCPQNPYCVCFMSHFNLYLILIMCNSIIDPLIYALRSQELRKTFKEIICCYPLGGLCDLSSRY

Turning to `COc1ccccc1-c1nc(Nc2ccccc2Cl)s[n+]1-c1ccccc1OC` [Compound 80], in assay [1], the half-inhibitory concentration (IC50) was found to be 378 nM. Further, in the assay on human sebocytes [2], the inhibition at 0.4 µM amounted to 61% and the inhibition at 0.8 µM is 91%. In the assay on human sebocytes [3], the “Visual* 0.4 μM (inhibition of lipid granule formation)” value is “++ (++ =50%)” and the “Visual* 0.8 μM (inhibition of lipid granule formation)” value is recorded as “++++ (++++ = 100%)”. Moreover, the IC50 on MC5-R is 138 nM.

As to “α-MSH: alpha-melanocyte stimulating hormone peptide, used as a positive control [reference compound]”, the “Percent Recovery of whisker movement D9” value in assay [4] (D9, % of sham-operated side) worked out at 2.0%. The “Percent Recovery of whisker movement D10” value in assay [4] (D10) is 24.6%. Further, in assay [4] (D11), the “Percent Recovery of whisker movement D11” value is listed as 60.1%. Besides, in assay [4] (D12), the “Percent Recovery of whisker movement D12” value was 93.8%. Also, in assay [4] (D13), the “Percent Recovery of whisker movement D13” value is recorded as 98.1%. For the same compound, the “Percent Recovery of whisker movement D14” value in assay [4] (D14) was 100%. For the same compound, in the assay on rabbit adipocytes, the EC50 is 3.7 nM.

For the compound “ACTH: melanocortin neuropeptide arising from pro-opiomelanocortin (POMC) (SYSMEHFRWGKPVGKKRRPVKVYPNGAEDESAEAFPLEF; Corticotropin; UniProt P01189 138-176, looked up)”, the figures for the EC50 with rabbit adipocytes and in the assay on rat adipocytes were 16.4 nM and 1.34 nM, respectively. Also, the effect on lipolysis result in assay [5] was “very little effect on lipolysis”.

In assay [1], `COc1ccccc1Nc1nc(-c2ccc(C)cc2)[n+](-c2ccccc2OC)s1` [Compound 67] showed a concentration for half-maximal inhibition (IC50) of 130 nM. In the assay with human sebocytes [3], the “Visual* 0.4 μM (inhibition of lipid granule formation)” value is reported as “++ (++ =50%)” and the “Visual* 0.8 μM (inhibition of lipid granule formation)” value is “+++ (+++ = 75%)”. The compound further showed an IC50 at MC5-R of 246 nM.

In turn, `COc1ccccc1Nc1nc(-c2ccccc2OC)[n+](-c2ccccc2OC)s1` [Compound 76] gave a 50% inhibitory concentration (IC50) in assay [1] of 332 nM. Also, in the assay on human sebocytes [2], the inhibition at 0.4 µM was found to be 48% and the inhibition at 0.8 µM was 88%. Also, in the assay on human sebocytes [3], the “Visual* 0.4 μM (inhibition of lipid granule formation)” value was “++ (++ =50%)” and the “Visual* 0.8 μM (inhibition of lipid granule formation)” value is “+++ (+++ = 75%)”. The compound also had an IC50 at MC5-R of 317 nM.
